{"source": "patent US20160002174A1", "about": "“CXCR4 Antagonists for the Treatment of Medical Disorders” (Emory University, priority 2005, published 2016)", "key": {"CXCR4": {"target": "CXCR4 (Homo sapiens, UniProt P61073)", "sequence (P61073 whole entry)": "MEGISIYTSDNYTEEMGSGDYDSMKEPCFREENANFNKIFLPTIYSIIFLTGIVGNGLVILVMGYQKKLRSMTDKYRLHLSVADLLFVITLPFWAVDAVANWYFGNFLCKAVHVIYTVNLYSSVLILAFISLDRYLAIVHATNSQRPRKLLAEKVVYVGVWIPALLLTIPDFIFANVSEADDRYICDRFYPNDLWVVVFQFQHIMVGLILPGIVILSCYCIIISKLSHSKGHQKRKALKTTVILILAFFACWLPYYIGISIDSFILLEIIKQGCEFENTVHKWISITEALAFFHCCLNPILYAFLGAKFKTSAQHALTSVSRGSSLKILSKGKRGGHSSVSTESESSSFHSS", "assay": "Competition assay using biotin-labeled TN14003 and streptavidin-conjugated rhodamine on tumor cells", "format": "binding", "settings": "cells pre-incubated with different concentrations", "method": "FIG. 8 is images of fluorescens micrographs of stained cells. Biotin-labeled TN14003 was used to detect CXCR4 protein from the cells pre-incubated with various concentrations of WZZL811S.\nUsing biotin-labeled TN14003 along with streptavidin-conjugated rhodamine allowed a determination of the binding efficiency of these chemicals to the SDF-1 binding site of CXCR4 on tumor cells and compared it to AMD3100-SDF-1 interactions (FIG. 7). […] Cells were pre-incubated with different concentrations of AMD3100. […] Therefore, one of these compounds, WZZL811S, was selected to study its therapeutic potential based on potency and low toxicity to cells (FIG. 9)."}, "phosphorylation of Akt": {"test_system": "phosphorylation of Akt", "assay": "SDF-1-stimulated phosphorylation of Akt (western blot)", "format": "cell-based, human", "settings": "for blocking of SDF-1-stimulated Akt phosphorylation (dose-dependent): MDA-MB-231 cells, 100 ng/ml SDF-1 for 30 min", "text": "FIG. 2 is an image of a western blot showing phosphorylation of Akt.\nFIG. 10 is a graph and representative blot of matrigel invasion and Akt phosphorylation in cells.\n(§1) CXCR4/SDF-1 interaction activates PI3K/Akt and Ras/Raf/MEK/Erk pathways in a Gαi protein (PTX-sensitive)-dependent manner."}, "Erk1/2 phosphorylation": {"test_system": "Erk1/2 phosphorylation", "assay": "SDF-1-stimulated Erk1/2 phosphorylation", "format": "cell-based, human", "settings": "data not shown", "text": "as §1"}, "CXCR4 protein levels": {"test_system": "CXCR4 protein levels", "assay": "CXCR4 protein levels in treated cells", "format": "cell-based, human", "text": "as §1"}, "[1]": {"settings": "cited from earlier work"}, "MDA-MB-231 cells": {"test_system": "MDA-MB-231 cells", "assay": "Cell viability of MDA-MB-231 cells", "format": "cell-based, human", "settings": "even at 100 μM (the highest concentration tested)"}, "[2]": {"test_system": "CXCR4/SDF-1 mediated invasion of MDA-MB-231", "assay": "Matrigel invasion assay, CXCR4/SDF-1-mediated invasion", "format": "cell-based, human", "settings": "MDA-MB-231, 2 nM", "method": "FIG. 10 is a graph and representative blot of matrigel invasion and Akt phosphorylation in cells. A: Inhibition of CXCR4/SDF-1 mediated invasion of MDA-MB-231 in vitro by WZZL811S. CXCR4/SDF-1 mediated invasion of MDA-MB-231 was blocked either by 2 nM of TN14003 or WZZL811S. B: Incubating MDA-MB-231 cells with 100 ng/ml of SDF-1 for 30 min stimulated phosphorylation of Akt that blocked by WZZL811S in a dose-dependent manner\nLowering CXCR4 mRNA levels by siRNAs inhibited CXCR4/SDF-1-mediated invasion as measured by a matrigel invasion assay. The CXCR4 ligand, SDF-1 (400 ng/ml) was added to the lower chamber to attract CXCR4-positive breast cancer cells to migrate through the matrigel. The invasion of MDA-MB-231 cells transfected with siRNA1 decreased to 39±4% of the control cells, 51±8% with siRNA2, and only 16±6% with both siRNA1+2 (FIG. 3A).\nWZZL811S was tested in a matrigel invasion assay to determine whether it can inhibit CXCR4/SDF-1-mediated invasion."}, "metastatic 686LN cells": {"test_system": "metastatic 686LN cells", "assay": "Head & Neck cancer metastasis model, 686LN cells injected through the tail vein, FDG-PET", "format": "in vivo, mice", "settings": "20 mg/mouse/twice weekly, thirty days", "method": "The metastatic 686LN cells were injected intravenously through the tail vein to generate experimental animal models for Head & Neck cancer metastasis, modulated via CXCR4. […] These 3-D projection images show lung metastases well (bone mets and liver mets were apparent in axial section images of mice in control groups, data not shown)."}, "[3]": {"test_system": "human umbilical vein endothelial cells (HUVECs)", "assay": "Endothelial capillary tube formation assay", "format": "cell-based", "settings": "100 nM, SDF-1 100 ng/ml, 18 hours", "method": "The anti-angiogenic effect of test compounds was measured by analyzing endothelial cell growth and tube formation. The angiogenic effect of SDF-1 (100 ng/ml) on capillary formation by human umbilical vein endothelial cells (HUVECs) was examined in vitro using Matrigel-coated 24-well plates precoated with Matrigel and incubated for 18 hours. The angiogenic effect of SDF-1 was inhibited by either 100 nM TN14003 (peptide-based CXCR4 antagonist) or WZZL811S treatment (FIG. 14a, graph FIG. 14b)."}, "SHIV": {"test_system": "SHIV", "assay": "SHIV infection, p27 antigen capture", "format": "cell-based", "settings": "0.1, 1, 10 or 100 nM drug prior to infection; 2 to 5 days", "method": "The effect of the test compounds on HIV infection in model cells was analyzed by p27 antigen capture using SHIV infected cells. Cells were incubated with 0, 0.1, 1, 10 or 100 nM drug prior to infection with SHIV. Viral titer was measured after infection by analyzing levels of p27 antigen. […] The inhibition was measurable at 2 days, and continued to 5 day incubations."}}, "note": "“Also recorded” adds a separate entry of the source."}
{"compound": "C1=CC(CN2CCCNCCNCCCNCC2)CC=C1CN1CCCNCCNCCCNCC1", "note": "(stereo not drawn) [AMD3100]", "values": [{"measurement": "concentration needed to compete against biotin-labeled TN14003", "setting": "CXCR4", "result": 10, "unit": "µM"}, {"measurement": "concentration blocking Akt activation", "setting": "phosphorylation of Akt; 100 ng/ml SDF-1 for 30 minutes", "result": "a few nano molar"}, {"measurement": "blocking of SDF-1-stimulated Akt phosphorylation (dose-dependent)", "setting": "phosphorylation of Akt", "result": "blocked"}, {"measurement": "concentration attenuating Erk1/2 phosphorylation", "setting": "Erk1/2 phosphorylation", "result": 100, "unit": "nM"}, {"measurement": "effect on CXCR4 protein levels", "setting": "CXCR4 protein levels", "result": "did not affect"}, {"measurement": "side effect in clinical study", "setting": "[1]", "result": "cardiac-related side effect"}]}
{"compound": "c1ccc(NCc2ccc(CNc3ccccn3)cc2)nc1", "note": "[WZZL811S]", "values": [{"measurement": "effect on cell viability", "setting": "MDA-MB-231 cells", "result": "did not decrease cell viability"}, {"measurement": "blocking of SDF-1-induced matrigel invasion", "setting": "[2]", "result": "blocked; also recorded: as potent as TN14003"}, {"measurement": "blocking of SDF-1-stimulated Akt phosphorylation (dose-dependent)", "setting": "phosphorylation of Akt", "result": "blocked"}, {"measurement": "efficacy relative to TN14003", "setting": "metastatic 686LN cells", "result": 80, "unit": "%"}, {"measurement": "inhibition of the angiogenic effect of SDF-1 (tube formation)", "setting": "[3]", "result": "inhibited"}, {"measurement": "inhibition of SHIV infection (p27 antigen)", "setting": "SHIV", "result": "inhibited SHIV infection at all concentrations tested"}]}
